Experimental data from US20060235020A1, “Process for preparing salts of 4-[[5-[(cyclopropylamino)carbonyl]-2-methylphenyl]amino]-5-methyl-N-propylpyrrolo[2,1-f][1,2,4]triazine-6-carboxamide and novel stable forms produced therein” (priority 2005, published 2006).
Read-outs that look alike come from different tables or passages of the source.

Experiments:
[1] = Stability of the crystals in the solid state; format: physicochemical; conditions: isolated solid
[2] = slurries in THF, acetonitrile, acetone and DMF/acetone at room temperature
Description: Form N-4 of the hydrochloric acid salt of the free base I crystallizes from organic solvents, preferably DMF/acetone.

[3] = Method: Moisture sorption isotherms were collected in a VTI SGA-100 Symmetric Vapor Analyzer using approximately 10 mg of sample. The sample was dried at 60° C. until the loss rate of 0.0005 wt %/min was obtained for 10 minutes. The sample was tested at 25° C. (for free base 1 and N-1 HCl salt) or 30° C. (for N-4 HCl salt) and 3 or 4, 5, 15, 25, 35, 45, 50, 65, 75, 85, and 95% RH. Equilibration at each RH was reached when the rate of 0.0003 wt %/min for 35 minutes was achieved or a maximum of 600 minutes.

Row | Compound | stability in the solid state form [1] | relative stability of the crystal form in slurries ([2]; listed as Form N-1) | hygroscopicity / water uptake (moisture-sorption isotherm) ([3]; about 25 to about 75% RH at 25° C.) | hygroscopicity / water uptake (moisture-sorption isotherm) ([3]; about 25 to about 75% RH at 25° C., listed as Form N-1 crystals of the hydrochloric acid salt of free base I) | relative stability of the crystal form in slurries ([2]; listed as Form N-4) | hygroscopicity / water uptake (moisture-sorption isotherm) ([3]; about 25 to about 75% RH at 30° C.) | hygroscopicity / water uptake (moisture-sorption isotherm) ([3]; about 25 to about 75% RH at 30° C., listed as Form N-4 crystals of free base I)
1 | CCCNC(=O)c1cn2ncnc(Nc3cc(C(=O)NC4CC4)ccc3C)c2c1C.Cl [Form N-1 hydrochloride salt, hydrochloric acid salt of 4-[[5-[(cyclopropylamino)carbonyl]-2-methylphenyl]amino]-5-methyl-N-propylpyrrolo[2,1-f][1,2,4]triazine-6-carboxamide] | remain stable in the solid state form | convert to Form N-4 | non-hygroscopic | negligible water uptake | – | – | –
2 | CCCNC(=O)c1cn2ncnc(Nc3cc(C(=O)NC4CC4)ccc3C)c2c1C.Cl [Form N-4 salt, hydrochloric acid salt of 4-[[5-[(cyclopropylamino)carbonyl]-2-methylphenyl]amino]-5-methyl-N-propylpyrrolo[2,1-f][1,2,4]triazine-6-carboxamide] | – | – | – | – | stable form at room temperature | non-hygroscopic | negligible water uptake
